The values that follow come from patent US7951364B2, “CaR receptor as a mediator of migratory cell chemotaxis and/or chemokinesis” (The General Hospital Corporation, priority 2000, dated 2011).

One assay deals with T1, CaR (Homo sapiens, UniProt P41180).
T1 construct: endogenous in cells; host or cells: peripheral blood CD14+ monocytes, sorted by FACS
T1 sequence (P41180 20-1078): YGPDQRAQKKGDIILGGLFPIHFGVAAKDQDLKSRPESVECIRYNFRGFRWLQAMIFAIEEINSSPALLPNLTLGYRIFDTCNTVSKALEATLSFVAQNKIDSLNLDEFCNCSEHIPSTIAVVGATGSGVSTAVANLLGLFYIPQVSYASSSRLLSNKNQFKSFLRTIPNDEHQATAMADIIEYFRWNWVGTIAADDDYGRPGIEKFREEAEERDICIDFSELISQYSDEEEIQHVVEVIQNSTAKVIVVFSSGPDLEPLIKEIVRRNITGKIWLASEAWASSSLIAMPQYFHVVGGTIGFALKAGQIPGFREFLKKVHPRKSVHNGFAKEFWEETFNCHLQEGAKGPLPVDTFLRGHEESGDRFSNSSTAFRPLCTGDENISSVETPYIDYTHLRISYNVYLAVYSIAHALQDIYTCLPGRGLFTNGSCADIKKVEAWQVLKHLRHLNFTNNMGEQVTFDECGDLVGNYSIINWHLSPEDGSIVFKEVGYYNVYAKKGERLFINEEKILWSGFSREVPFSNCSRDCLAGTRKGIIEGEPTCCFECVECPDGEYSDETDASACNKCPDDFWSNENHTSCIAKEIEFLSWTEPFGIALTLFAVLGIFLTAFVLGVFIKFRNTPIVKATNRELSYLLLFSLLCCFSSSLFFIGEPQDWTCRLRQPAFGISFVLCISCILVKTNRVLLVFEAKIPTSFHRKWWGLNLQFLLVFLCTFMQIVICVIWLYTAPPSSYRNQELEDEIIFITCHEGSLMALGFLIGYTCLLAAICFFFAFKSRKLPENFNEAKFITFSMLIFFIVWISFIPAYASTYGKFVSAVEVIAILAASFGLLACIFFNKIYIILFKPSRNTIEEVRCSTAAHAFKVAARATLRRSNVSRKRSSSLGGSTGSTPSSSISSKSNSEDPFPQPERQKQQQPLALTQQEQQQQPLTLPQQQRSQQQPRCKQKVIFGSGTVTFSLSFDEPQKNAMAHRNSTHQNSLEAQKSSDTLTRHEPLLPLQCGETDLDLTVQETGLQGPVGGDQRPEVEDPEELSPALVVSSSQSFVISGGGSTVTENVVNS
As to the kind of experiment: Cytosolic calcium changes in purified monocytes (Indo-1/AM, flow cytometry). In kind it is cell-based. The method, then:
(§1) Preparation of peripheral blood CD14^+ monocytes. Low density cells were isolated from human and mouse peripheral blood using Ficoll-Hypaque (Pharmacia, Piscataway, N.J.). CD14^+ monocytes were purified by sorting on FACSVantage (Becton Dickinson, San Jose, Calif.) based on CD14 expression. Purified cells were incubated in either calcium-free medium (Hanks' Balanced Salt Solution 1×, CellGro, Hermdon. VA) or Iscove's Medium 1×(Mod) (CellGro, Herndon, Va.) which contains 1.5 mM Ca++. […] Cells were incubated for up to 24 hours in 5% CO2 humidified air. Monocytes were then detached from the plate using a cell scraper. All calcium concentrations indicated in the presentation of the data represent the total Ca^++ present in the basal medium plus any added Ca^++.
Cytosolic calcium changes. Purified monocytes were loaded with Indo-1/AM (Molecular Probes, Eugene, Oreg.). Cells were collected on FACSVantage for 0.30 sec to establish a baseline emission value for Indo-1/AM. […] Data acquisition then continued for up to 5 minutes.

The subject of a further assay is CD14^+ monocytes. The assay is described as follows: Transmigration assay (monocyte chemotaxis, transwell). In kind it is cell-based, human. The method, then:
as §1
Transmigration assays. Transwells (5 μm pore size polycarbonate membrane, 12 mm diameter) (Costar, Corning, N.Y.) were used to assess cell migration using an established methodology (25). The concentration of Ca^++ in IMDM (CellGro, Herndon, Va.) in the upper and lower chambers of the transwell were adjusted according to a checkerboard analysis of chemotaxis. Calcium concentrations varied from 0 mM to 6.5 mM. Purified monocytes (1×10^4) were then placed in the top chamber with 150 μl of IMDM (CellGro, Hemdon, Va.). 500 μl of the medium was added to the bottom of the well and supplemented with varying concentrations of Ca^++ or with Ca^++ plus 10 ng/ml of MCP-1, 100 ng/ml of SDF-1α or 10 ng/ml of MIP-1α (PeproTech, Rocky Hills, N.Y.). Cells were incubated at 37° C. for 3 hours. To study inhibition of chemotaxis, cells were subsequently incubated with wortmannin (1 μM for 20 minutes at 37° C.), herbimycin (1 μM for 20 minutes at 37° C.) or genistein (1 μg/ml for 20 minutes at 37° C.), before their use in transmigration assays. At the end of the experiment, cells were then harvested from the lower chamber and counted using a hemocytometer.

The test system of a further assay is human CD34^+ cells. As to the kind of experiment: In vitro assays of human CD34^+ hematopoietic progenitor cells. The format is cell-based. Particulars: increased Ca^2+ concentration. The text has this:
Calcium ions effect Hematopoietic Progenitor Cells. We also assessed the effects of calcium, through its interaction with the calcium sensing receptor (CaR) using in vitro assays of human CD34^+ cells. […] Therefore, calcium participates in maintaining candidate stem cells in a primitive, undifferentiated state. […] This was accompanied by a decrease in the level of LTC-ICs in the bone marrow, but an increase in the level of CFU-Cs, with a converse increase in hematopoietic stem cells in is the peripheral blood.

The subject of assay [1] is monocytes (Mac-1 positive mononuclear cells). As to the kind of experiment: Biologic activity in vivo: subcutaneous injection, monocyte infiltration at injection site. Also noted: species or system C57BL/6 mice. Conditions: tissue excised 18 hours later, CaCl2 5.0 mM, NPS R-467 10 μM. On the procedure: Biologic activity of ionic calcium in vivo. C57BL/6 mice (Jackson Laboratories) were injected subcutaneously at a marked, shaved spot on the abdomen with 20 μl of 5 mM CaCl2 or 20 μl of MCP-1 at a concentration of 10 ng/ml, with a combination of MCP-1 and 5 mM CaCl2 or with 10 μM NPS R-467 in PBS. Control mice were injected subcutaneously with 20 μl PBS alone. All subcutaneously injected agents contained less than 0.004 ng/ml of LPS by the limulus assay (Sigma) as previously described (Bleul, C. C., et al., J Exp Med, 1996, 184:1101-1109). Mice were sacrificed by CO2 asphyxiation 18 hours after injection, and injection sites were excised, snap-frozen and 4 μm cryosections were obtained and stained with hematoxylin and eosin. Immunocytochemistry was performed on the frozen sections using alkaline phosphatase-conjugated Mac-1 antibody (Pharmingen) as previously described and assessed by light microscopy (Bleul, C. C., et al., supra).

As to `[Ca+2].[Cl-].[Cl-]` [Ca^++, calcium chloride], the “Increase in cytosolic calcium” value on CaR (4.5 mM Ca^++) is given as “Sustained increases”. At CaR (monocytes, dose dependent), the “Extracellular Ca^++ concentration giving maximal cytosolic Ca^++ response” value is on record as 4.5 mM. In the assay on CD14^+ monocytes, the “Ca^++ concentration giving maximal chemotaxis” value was found to be 4.5 mM and the “Ca^++ concentration giving peak migration in response to MCP-1” value is on record as 4.5 mM. Besides, the “Number of more mature BFU-Es” value with human CD34^+ cells (p=0.017) is on record as “decrease”. Further, the “Level of primitive cells measured by LTC-ICs” value in the assay on human CD34^+ cells (p=0.037) is listed as “increase”. Besides, in assay [1], the “Accumulation of mononuclear cells staining positive for Mac-1 at injection site” value was “Accumulation”.
